This passage reports IC50 results from ChEMBL document CHEMBL3286145, “Evaluation of the antiprion activity of 6-aminophenanthridines and related heterocycles” (Eur J Med Chem, 2014).

The assay can be described thus: Ex vivo antiprion activity against sheep 127S scrapie prion protein infected in mouse MovS6 cells assessed as PK digestion resistant-PrPSc accumulation after 6 days by immunoblot analysis. It counts as cell-based. The conditions noted are these: Ovis aries, MovS6, 144 h.
As for `Nc1nc2ccccc2c2ccccc12`, the IC50 is less than 5 µM.

Regarding `Nc1nc2ccccc2c2cccc(F)c12`, the concentration for half-maximal inhibition (IC50) was greater than 20 µM.

For the compound `Nc1nc2ccccc2c2ccc(F)cc12`, the IC50 was 15 µM.

Take `Nc1nc2ccccc2c2ccc([N+](=O)[O-])cc12`: the 50% inhibitory concentration (IC50) is 20 µM.

In the case of `Nc1nc2ccccc2c2cc([N+](=O)[O-])ccc12`, the IC50 was less than 5 µM.

`Nc1cccc2c1c(N)nc1ccccc12`: the concentration for half-maximal inhibition (IC50) was 30 µM.

Turning to `Nc1nc2ccccc2c2cc(F)ccc12`, the 50% inhibitory concentration (IC50) was 5 µM.

With `Nc1nc2ccccc2c2ccc(C(F)(F)F)cc12`, the concentration for half-maximal inhibition (IC50) worked out at 10 µM.

As for `COc1cc(OC)c2nc(N)c3ccccc3c2c1`, the IC50 is less than 1.8 µM.

As for `[N-]=[N+]=Nc1ccc2c(c1)c(N)nc1ccccc12`, the half-maximal inhibitory concentration (IC50) is 10 µM.

Regarding `Nc1nc2ccccc2c2c1CC=CC2`, the half-maximal inhibitory concentration (IC50) turned out to be 1.8 µM.

`Nc1nc2ccccc2c2c1CCCC2`: the IC50 is less than 5 µM.
